In ChEMBL document CHEMBL1133412, “Rational design, synthesis and structure-activity relationships of antitumor (E)-2-benzylidene-1-tetralones and (E)-2-benzylidene-1-indanones” (Bioorg Med Chem Lett, 2000):

How the values were obtained:
[1] = tested on: CCRF-CEM; assay: Cytotoxicity evaluated against CEM tumor cell lines; Significant activity; type: functional, cell-based; conditions: Homo sapiens
[2] = tested on: WIL2; assay: Cytotoxicity evaluated against WIL2 tumor cell lines; Significant activity; type: functional, cell-based; conditions: Homo sapiens
[3] = tested on: L1210; assay: Cytotoxicity evaluated against L1210 tumor cell lines; Significant activity; type: functional, cell-based; conditions: Mus musculus
[4] = tested on: B16; assay: Cytotoxicity was evaluated against B16 tumor cell lines; Significant activity; type: functional, cell-based; conditions: Mus musculus
[5] = tested on: WI-38; assay: Cytotoxicity evaluated against WI38 tumor cell lines; Significant activity; type: functional, cell-based; conditions: Homo sapiens
[6] = tested on: A549; assay: Cytotoxicity evaluated against A549 tumor cell lines; significant activity; type: functional, cell-based; conditions: Homo sapiens
[7] = tested on: Tumor cell line; assay: In vivo testing against tumor cells that were placed in the polyvinylidene fluoride (PVDF) hollow fibers of capsules and then implanted in to mice intraperitoneally or subcutaneously; type: functional, Mus musculus
[8] = tested on: K562; assay: Cytotoxicity evaluated against K562 tumor cell lines; Significant activity; type: functional, cell-based; conditions: Homo sapiens
[9] = tested on: HL-60; assay: Cytotoxicity evaluated against HL-60 tumor cell lines; Significant activity; type: functional, cell-based; conditions: Homo sapiens
[10] = tested on: NCI-H292; assay: Cytotoxicity evaluated against H292 tumor cell lines; Significant activity; type: functional, cell-based; conditions: Homo sapiens
[11] = tested on: MOLT-4; assay: Cytotoxicity was evaluated against Molt-4 tumor cell lines; type: functional, cell-based; conditions: Homo sapiens
[12] = tested on: NCI-H596; assay: Cytotoxicity evaluated against H596 tumor cell lines; Significant activity; type: functional, cell-based; conditions: Homo sapiens
[13] = tested on: MCF7; assay: Cytotoxicity evaluated against MCF-7 tumor cell lines; Significant activity; type: functional, cell-based; conditions: Homo sapiens
[14] = tested on: NIH3T3; assay: Cytotoxicity evaluated against NIH3T3 tumor cell lines; Significant activity; type: functional, cell-based; conditions: Mus musculus
[15] = tested on: Jurkat; assay: In vitro test for antitumor activity against human Jurkat cell line using a formazan dye (MTT) conversion assay.; type: functional, cell-based
[16] = tested on: WIL2; assay: Cytotoxicity was evaluated against WIL2 tumor cell lines; Slightly active; type: functional, cell-based; conditions: Homo sapiens
[17] = tested on: NIH3T3; assay: Cytotoxicity was evaluated against NIH3T3 tumor cell lines; Slightly active; type: functional, cell-based; conditions: Mus musculus
[18] = tested on: NCI-H292; assay: Cytotoxicity was evaluated against H292 tumor cell lines; Slightly active; type: functional, cell-based; conditions: Homo sapiens
[19] = tested on: B16; assay: Cytotoxicity was evaluated against B16 tumor cell lines; Slightly active; type: functional, cell-based; conditions: Mus musculus
[20] = tested on: NCI-H596; assay: Cytotoxicity was evaluated against H596 tumor cell lines; Slightly active; type: functional, cell-based; conditions: Homo sapiens
[21] = tested on: WI-38; assay: Cytotoxicity was evaluated against WI38 tumor cell lines; Slightly active; type: functional, cell-based; conditions: Homo sapiens
[22] = tested on: MOLT-4; assay: Cytotoxicity was evaluated against Molt-4 tumor cell lines; Slightly active; type: functional, cell-based; conditions: Homo sapiens
[23] = tested on: HL-60; assay: Cytotoxicity was evaluated against HL-60 tumor cell lines; Slightly active; type: functional, cell-based; conditions: Homo sapiens
[24] = tested on: MCF7; assay: Cytotoxicity was evaluated against MCF-7 tumor cell lines; Slightly active; type: functional, cell-based; conditions: Homo sapiens
[25] = tested on: CCRF-CEM; assay: Cytotoxicity was evaluated against CEM tumor cell lines; Slightly active; type: functional, cell-based; conditions: Homo sapiens
[26] = tested on: L1210; assay: Cytotoxicity was evaluated against L1210 tumor cell lines; Slightly active; type: functional, cell-based; conditions: Mus musculus
[27] = tested on: A549; assay: Cytotoxicity was evaluated against A549 tumor cell lines; Slightly active; type: functional, cell-based; conditions: Homo sapiens
[28] = tested on: K562; assay: Cytotoxicity was evaluated against K562 tumor cell lines; Slightly active; type: functional, cell-based; conditions: Homo sapiens

SMILES	IC50 [15]	Cytotoxicity [1]	Cytotoxicity [2]	Cytotoxicity [3]	Cytotoxicity [4]	Cytotoxicity [5]	Cytotoxicity [6]	IP+SC score [7]	Cytotoxicity [8]	Cytotoxicity [9]	Cytotoxicity [10]	Cytotoxicity [11]	Cytotoxicity [12]	Cytotoxicity [13]	Cytotoxicity [14]	Cytotoxicity [16]	Cytotoxicity [17]	Cytotoxicity [18]	Cytotoxicity [19]	Cytotoxicity [20]	other results
COc1cc2c(cc1OC)C(=O)/C(=C/c1ccc(N)cc1)CC2	40000 nM															Weak activity	Weak activity	Weak activity	Weak activity	Weak activity	Cytotoxicity [21]: Weak activity; Cytotoxicity [22]: Weak activity; Cytotoxicity [23]: Weak activity; Cytotoxicity [24]: Weak activity; Cytotoxicity [25]: Weak activity; Cytotoxicity [26]: Weak activity; Cytotoxicity [27]: Weak activity; Cytotoxicity [28]: Weak activity
COc1cc2c(cc1OC)C(=O)/C(=C/c1cc(C)c(OC(=O)OCC(C)C)c(C)c1)C2	21500 nM															Weak activity	Weak activity	Weak activity	Weak activity	Weak activity	Cytotoxicity [21]: Weak activity; Cytotoxicity [22]: Weak activity; Cytotoxicity [23]: Weak activity; Cytotoxicity [24]: Weak activity; Cytotoxicity [25]: Weak activity; Cytotoxicity [26]: Weak activity; Cytotoxicity [27]: Weak activity; Cytotoxicity [28]: Weak activity
COc1cc2c(cc1OC)C(=O)/C(=C/c1cc(C)c([N+](=O)[O-])c(C)c1)C2	25000 nM															Weak activity	Weak activity	Weak activity	Weak activity	Weak activity	Cytotoxicity [21]: Weak activity; Cytotoxicity [22]: Weak activity; Cytotoxicity [23]: Weak activity; Cytotoxicity [24]: Weak activity; Cytotoxicity [25]: Weak activity; Cytotoxicity [26]: Weak activity; Cytotoxicity [27]: Weak activity; Cytotoxicity [28]: Weak activity
COc1cc(/C=C2\Cc3cc(OC)c(OC)cc3C2=O)cc(OC)c1	3000 nM	Significant activity	Significant activity	Significant activity	Significant activity	Significant activity	Significant activity	<20	Significant activity	Significant activity	Significant activity	Significant activity	Significant activity	Significant activity	Significant activity						

The next compounds have a lower IC50 [15] than those just listed; values first:

IC50 [15]	SMILES	Cytotoxicity [1]	Cytotoxicity [2]	Cytotoxicity [3]	Cytotoxicity [4]	Cytotoxicity [5]	Cytotoxicity [6]	IP+SC score [7]	Cytotoxicity [8]	Cytotoxicity [9]	Cytotoxicity [10]	Cytotoxicity [11]	Cytotoxicity [12]	Cytotoxicity [13]	Cytotoxicity [14]	Cytotoxicity [16]	Cytotoxicity [17]	Cytotoxicity [18]	Cytotoxicity [19]	Cytotoxicity [20]	other results
2000 nM	COc1cc2c(cc1OC)C(=O)/C(=C/c1cc(Cl)cc(Cl)c1)C2	Significant activity	Significant activity	Significant activity	Significant activity	Significant activity	Significant activity	<20	Significant activity	Significant activity	Significant activity	Significant activity	Significant activity	Significant activity	Significant activity						
6 nM	COc1cc2c(cc1OC)C(=O)/C(=C/c1cc(C)c(O)c(C)c1)C2	Significant activity	Significant activity	Significant activity	Significant activity	Significant activity	Significant activity	>20	Significant activity	Significant activity	Significant activity	Significant activity	Significant activity	Significant activity	Significant activity						
4 nM	COc1cc2c(c(N)c1OC)C(=O)/C(=C/c1cc(C)c(O)c(C)c1)C2	Significant activity	Significant activity	Significant activity	Significant activity	Significant activity	Significant activity	>20	Significant activity	Significant activity	Significant activity	Significant activity	Significant activity	Significant activity	Significant activity						
